Where a SMILES comes first, the peptide text is derived from it. [ ]: non-standard residue; d: D form. Aib = CC(C)(N)C(=O)O
Experiments:
human GCGR = human GCGR (Homo sapiens, UniProt P47871); assay: Peptide-receptor mediated cAMP accumulation (LANCE Ultra cAMP) in CHO-K1 cells transfected with human GCGR; assay type: cell-based; conditions: Table 3
human GLP-1R = human GLP-1R (Homo sapiens, UniProt P43220); assay: Peptide-receptor mediated cAMP accumulation (LANCE Ultra cAMP) in CHO-K1 cells transfected with human GLP-1R; assay type: cell-based; conditions: hGLP1 pEC50 (cAMP mean (n = 3): 11 point curve starting at 1 nM, Table 3)
Sequence of human GLP-1R (P43220 24-463): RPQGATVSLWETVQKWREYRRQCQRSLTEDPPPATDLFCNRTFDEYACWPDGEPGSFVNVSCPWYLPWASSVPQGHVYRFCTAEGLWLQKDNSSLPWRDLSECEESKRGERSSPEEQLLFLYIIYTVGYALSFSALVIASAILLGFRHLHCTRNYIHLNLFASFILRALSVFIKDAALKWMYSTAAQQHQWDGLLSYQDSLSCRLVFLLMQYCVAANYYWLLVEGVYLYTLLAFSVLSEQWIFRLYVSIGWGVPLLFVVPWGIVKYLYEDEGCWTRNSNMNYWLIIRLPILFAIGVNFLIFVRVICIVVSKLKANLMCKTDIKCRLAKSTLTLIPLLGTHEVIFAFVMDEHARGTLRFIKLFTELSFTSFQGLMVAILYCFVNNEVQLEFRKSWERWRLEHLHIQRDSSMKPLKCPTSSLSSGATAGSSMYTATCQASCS

Sequence of human GCGR (P47871 26-477): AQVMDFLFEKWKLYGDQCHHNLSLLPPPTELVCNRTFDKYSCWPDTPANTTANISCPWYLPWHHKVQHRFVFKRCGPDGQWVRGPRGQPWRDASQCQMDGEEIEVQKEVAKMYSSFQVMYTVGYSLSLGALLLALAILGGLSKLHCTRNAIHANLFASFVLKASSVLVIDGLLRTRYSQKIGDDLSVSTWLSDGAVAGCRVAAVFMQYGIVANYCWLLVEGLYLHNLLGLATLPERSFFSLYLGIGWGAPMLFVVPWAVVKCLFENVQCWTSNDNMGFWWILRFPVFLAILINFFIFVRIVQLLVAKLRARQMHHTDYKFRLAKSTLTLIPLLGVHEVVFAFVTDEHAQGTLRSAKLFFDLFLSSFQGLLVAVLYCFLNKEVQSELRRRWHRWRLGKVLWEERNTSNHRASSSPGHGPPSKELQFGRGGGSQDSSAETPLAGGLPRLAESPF

| SMILES | EC50 (human GCGR) | EC50 (human GLP-1R) |
| --- | --- | --- |
| CC(C)C[C@H](NC(=O)[C@H](Cc1ccc(O)cc1)NC(=O)[C@H](CCCCN)NC(=O)[C@H](CO)NC(=O)[C@H](Cc1ccc(O)cc1)NC(=O)[C@H](CC(=O)O)NC(=O)[C@H](CO)NC(=O)[C@@H](NC(=O)[C@H](Cc1ccccc1)NC(=O)[C@@H](NC(=O)CNC(=O)[C@H](Cc1c[nH]cn1)NC(=O)[C@H](CO)NC(=O)[C@@H](N)Cc1ccc(O)cc1)[C@@H](C)O)[C@@H](C)O)C(=O)N[C@@H](CC(=O)O)C(=O)NC(C)(C)C(=O)N[C@@H](CCCCN)C(=O)N[C@@H](CCCNC(=N)N)C(=O)N[C@@H](C)C(=O)N[C@@H](CCC(N)=O)C(=O)N[C@@H](CCC(=O)O)C(=O)N[C@@H](Cc1ccccc1)C(=O)N[C@H](C(=O)NC(C)(C)C(=O)N[C@@H](Cc1c[nH]c2ccccc12)C(=O)N[C@@H](CC(C)C)C(=O)N[C@@H](CCC(=O)O)C(=O)N[C@@H](CC(=O)O)C(=O)N[C@@H](CCC(=O)O)C(=O)N[C@@H](CCCCN)C(=O)N[C@@H](CCCNC(=N)N)C(=O)N[C@@H](CC(N)=O)C(=O)N[C@@H](CCCCN)C(=O)N1CCC[C@H]1C(=O)N1CCC[C@H]1C(=O)N1CCC[C@H]1C(=O)N[C@@H](C)C(=O)O)C(C)C [Compound A45] (H-YSHGTFTSDYSKYLD[Aib]KRAQEFV[Aib]WLEDEKRNKPPPA-OH; N-terminus assumed) | 2 pM | > 1000 pM |
| CC(C)C[C@H](NC(=O)[C@H](Cc1ccc(O)cc1)NC(=O)[C@H](CCCCN)NC(=O)[C@H](CO)NC(=O)[C@H](Cc1ccc(O)cc1)NC(=O)[C@H](CC(=O)O)NC(=O)[C@H](CO)NC(=O)[C@@H](NC(=O)[C@H](Cc1ccccc1)NC(=O)[C@@H](NC(=O)CNC(=O)[C@H](Cc1c[nH]cn1)NC(=O)[C@H](CO)NC(=O)[C@@H](N)Cc1ccc(O)cc1)[C@@H](C)O)[C@@H](C)O)C(=O)N[C@@H](CC(=O)O)C(=O)NC(C)(C)C(=O)N[C@@H](CCCCN)C(=O)N[C@@H](CCCNC(=N)N)C(=O)N[C@@H](C)C(=O)N[C@@H](CCC(N)=O)C(=O)N[C@@H](CCC(=O)O)C(=O)N[C@@H](Cc1ccccc1)C(=O)N[C@H](C(=O)NC(C)(C)C(=O)N[C@@H](Cc1c[nH]c2ccccc12)C(=O)N[C@@H](CC(C)C)C(=O)N[C@@H](CCC(=O)O)C(=O)N[C@@H](CC(=O)O)C(=O)N[C@@H](CCC(=O)O)C(=O)N[C@@H](CCCCN)C(=O)N[C@@H](CCCNC(=N)N)C(=O)N[C@@H](CC(N)=O)C(=O)N[C@@H](CCCCN)C(=O)N[C@@H](CC(N)=O)C(=O)N1CCC[C@H]1C(=O)N1CCC[C@H]1C(=O)N[C@@H](CO)C(=O)O)C(C)C [Compound A47] (H-YSHGTFTSDYSKYLD[Aib]KRAQEFV[Aib]WLEDEKRNKNPPS-OH; N-terminus assumed) | 3.16 pM | > 1000 pM |
| CC(C)C[C@H](NC(=O)[C@H](Cc1ccc(O)cc1)NC(=O)[C@H](CCCCN)NC(=O)[C@H](CO)NC(=O)[C@H](Cc1ccc(O)cc1)NC(=O)[C@H](CC(=O)O)NC(=O)[C@H](CO)NC(=O)[C@@H](NC(=O)[C@H](Cc1ccccc1)NC(=O)[C@@H](NC(=O)CNC(=O)[C@H](Cc1c[nH]cn1)NC(=O)[C@H](CO)NC(=O)[C@@H](N)Cc1ccc(O)cc1)[C@@H](C)O)[C@@H](C)O)C(=O)N[C@@H](CC(=O)O)C(=O)NC(C)(C)C(=O)N[C@@H](CCCCN)C(=O)N[C@@H](CCCNC(=N)N)C(=O)N[C@@H](C)C(=O)N[C@@H](CCC(N)=O)C(=O)N[C@@H](CCC(=O)O)C(=O)N[C@@H](Cc1ccccc1)C(=O)N[C@H](C(=O)NC(C)(C)C(=O)N[C@@H](Cc1c[nH]c2ccccc12)C(=O)N[C@@H](CC(C)C)C(=O)N[C@@H](CCC(=O)O)C(=O)N[C@@H](CC(=O)O)C(=O)N[C@@H](CCC(=O)O)C(=O)N[C@@H](CCCCN)C(=O)N[C@@H](CCCNC(=N)N)C(=O)N[C@@H](CC(N)=O)C(=O)N[C@@H](CCCCN)C(=O)N1CCC[C@H]1C(=O)N1CCC[C@H]1C(=O)N1CCC[C@H]1C(=O)N[C@@H](CO)C(=O)O)C(C)C [Compound A50] (H-YSHGTFTSDYSKYLD[Aib]KRAQEFV[Aib]WLEDEKRNKPPPS-OH; N-terminus assumed) | 3.16 pM | > 1000 pM |
| CC(C)C[C@H](NC(=O)[C@H](Cc1c[nH]c2ccccc12)NC(=O)[C@H](CC(C)C)NC(=O)[C@@H](NC(=O)[C@H](Cc1ccccc1)NC(=O)[C@H](CCC(=O)O)NC(=O)[C@H](CCC(N)=O)NC(=O)[C@H](C)NC(=O)[C@H](CCCNC(=N)N)NC(=O)[C@H](CCCCN)NC(=O)C(C)(C)NC(=O)[C@H](CC(=O)O)NC(=O)[C@H](CC(C)C)NC(=O)[C@H](Cc1ccc(O)cc1)NC(=O)[C@H](CCCCN)NC(=O)[C@H](CO)NC(=O)[C@H](Cc1ccc(O)cc1)NC(=O)[C@H](CC(=O)O)NC(=O)[C@H](CO)NC(=O)[C@@H](NC(=O)[C@H](Cc1ccccc1)NC(=O)[C@@H](NC(=O)CNC(=O)[C@H](Cc1c[nH]cn1)NC(=O)[C@H](CO)NC(=O)[C@@H](N)Cc1ccc(O)cc1)[C@@H](C)O)[C@@H](C)O)C(C)C)C(=O)N[C@@H](CCC(=O)O)C(=O)N[C@@H](CC(=O)O)C(=O)N[C@@H](CCC(=O)O)C(=O)N1CCC[C@H]1C(=O)N[C@@H](CO)C(=O)N[C@@H](CO)C(=O)NCC(=O)N[C@@H](C)C(=O)N1CCC[C@H]1C(=O)N1CCC[C@H]1C(=O)N1CCC[C@H]1C(=O)N[C@@H](CO)C(=O)O [Compound A53] (H-YSHGTFTSDYSKYLD[Aib]KRAQEFVLWLEDEPSSGAPPPS-OH; N-terminus assumed) | 2.51 pM | > 1000 pM |
| CC(C)C[C@H](NC(=O)[C@H](Cc1ccc(O)cc1)NC(=O)[C@H](CCCCN)NC(=O)[C@H](CO)NC(=O)[C@H](Cc1ccc(O)cc1)NC(=O)[C@H](CC(=O)O)NC(=O)[C@H](CO)NC(=O)[C@@H](NC(=O)[C@H](Cc1ccccc1)NC(=O)[C@@H](NC(=O)CNC(=O)[C@H](Cc1c[nH]cn1)NC(=O)[C@H](CO)NC(=O)[C@@H](N)Cc1ccc(O)cc1)[C@@H](C)O)[C@@H](C)O)C(=O)N[C@@H](CC(=O)O)C(=O)NC(C)(C)C(=O)N[C@@H](CCCCN)C(=O)N[C@@H](CCCNC(=N)N)C(=O)N[C@@H](C)C(=O)N[C@@H](CCC(N)=O)C(=O)N[C@@H](CCC(=O)O)C(=O)N[C@@H](Cc1ccccc1)C(=O)N[C@H](C(=O)NC(C)(C)C(=O)N[C@@H](Cc1c[nH]c2ccccc12)C(=O)N[C@@H](CC(C)C)C(=O)N[C@@H](CCC(=O)O)C(=O)N[C@@H](CC(=O)O)C(=O)N[C@@H](CCC(=O)O)C(=O)N1CCC[C@H]1C(=O)N[C@@H](CCCCN)C(=O)N[C@@H](CO)C(=O)N[C@@H](CCCCN)C(=O)N[C@@H](CCC(N)=O)C(=O)N1CCC[C@H]1C(=O)N1CCC[C@H]1C(=O)N1CCC[C@H]1C(=O)N[C@@H](CO)C(=O)O)C(C)C [Compound A57] (H-YSHGTFTSDYSKYLD[Aib]KRAQEFV[Aib]WLEDEPKSKQPPPS-OH; N-terminus assumed) | 1 pM | > 1000 pM |
| CC(C)C[C@H](NC(=O)[C@H](Cc1ccc(O)cc1)NC(=O)[C@H](CCCCN)NC(=O)[C@H](CO)NC(=O)[C@H](Cc1ccc(O)cc1)NC(=O)[C@H](CC(=O)O)NC(=O)[C@H](CO)NC(=O)[C@@H](NC(=O)[C@H](Cc1ccccc1)NC(=O)[C@@H](NC(=O)CNC(=O)[C@H](Cc1c[nH]cn1)NC(=O)[C@@H](NC(=O)[C@@H](N)Cc1ccc(O)cc1)[C@@H](C)O)[C@@H](C)O)[C@@H](C)O)C(=O)N[C@@H](CC(=O)O)C(=O)NC(C)(C)C(=O)N[C@@H](CCCCN)C(=O)N[C@@H](CCCNC(=N)N)C(=O)N[C@@H](C)C(=O)N[C@@H](CCC(N)=O)C(=O)N[C@@H](CCC(=O)O)C(=O)N[C@@H](Cc1ccccc1)C(=O)N[C@H](C(=O)NC(C)(C)C(=O)N[C@@H](Cc1c[nH]c2ccccc12)C(=O)N[C@@H](CC(C)C)C(=O)N[C@@H](CCC(=O)O)C(=O)N[C@@H](CC(=O)O)C(=O)N[C@@H](CCC(=O)O)C(=O)N1CCC[C@H]1C(=O)N[C@@H](CO)C(=O)N[C@@H](CO)C(=O)NCC(=O)N[C@@H](CCCCN)C(=O)N1CCC[C@H]1C(=O)N1CCC[C@H]1C(=O)N1CCC[C@H]1C(=O)N[C@@H](CO)C(=O)O)C(C)C [Compound A60] (H-YTHGTFTSDYSKYLD[Aib]KRAQEFV[Aib]WLEDEPSSGKPPPS-OH; N-terminus assumed) | 5.01 pM | > 1000 pM |
| CC(C)C[C@H](NC(=O)[C@H](Cc1ccc(O)cc1)NC(=O)[C@H](CCCCN)NC(=O)[C@H](CO)NC(=O)[C@H](Cc1ccc(O)cc1)NC(=O)[C@H](CC(=O)O)NC(=O)[C@H](CO)NC(=O)[C@@H](NC(=O)[C@H](Cc1ccccc1)NC(=O)[C@@H](NC(=O)CNC(=O)[C@H](Cc1c[nH]cn1)NC(=O)[C@@H](NC(=O)[C@@H](N)Cc1ccc(O)cc1)[C@@H](C)O)[C@@H](C)O)[C@@H](C)O)C(=O)N[C@@H](CC(=O)O)C(=O)NC(C)(C)C(=O)N[C@@H](CCCCN)C(=O)N[C@@H](CCCNC(=N)N)C(=O)N[C@@H](C)C(=O)N[C@@H](CCC(N)=O)C(=O)N[C@@H](CCC(=O)O)C(=O)N[C@@H](Cc1ccccc1)C(=O)N[C@H](C(=O)NC(C)(C)C(=O)N[C@@H](Cc1c[nH]c2ccccc12)C(=O)N[C@@H](CC(C)C)C(=O)N[C@@H](CCC(=O)O)C(=O)N[C@@H](CC(=O)O)C(=O)N[C@@H](CCC(=O)O)C(=O)N1CCC[C@H]1C(=O)N[C@@H](CO)C(=O)N[C@@H](CO)C(=O)NCC(=O)N[C@@H](C)C(=O)N1CCC[C@H]1C(=O)N1CCC[C@H]1C(=O)N1CCC[C@H]1C(=O)N[C@@H](CO)C(=O)O)C(C)C [Compound A62] (H-YTHGTFTSDYSKYLD[Aib]KRAQEFV[Aib]WLEDEPSSGAPPPS-OH; N-terminus assumed) | 3.16 pM | > 1000 pM |
